Reference: patent US20250051345A1, “PYRIDINE-3-CARBOXYLATE COMPOUNDS AS CAV1.2 ACTIVATORS” (Novartis AG, priority 2021, published 2025)

Key:
human Cav1.2 [1] = target: T1, human Cav1.2 (Homo sapiens (Human), UniProt Q13936); test: Sophion QPatch dose-response assay, whole-cell voltage clamp of barium currents in the Cav1.2-HEK293 (AUX) cell line; type: cell-based; settings: for QPatch Emax: maximal fold change of peak inward current
Protocol: (§1) Clonal isolation was achieved under Neomycin selection.
(§2) Each experimental run uses 1.5 mL of cells.
(§3) The protocol had eight liquid periods. […] The protocol had four liquid periods.

human Cav1.2 [2] = target: T1, human Cav1.2; test: QPatch channel biophysics assay (V1/2 voltage shift, tau of inactivation) in the Cav1.2-HEK293 (AUX) cell line; type: cell-based
Protocol: as §1, §2, §3

[3] = Compound exposure in brain (cerebellum) and blood of wild-type mice; type: in vivo, mouse; settings: C57BL/6J male mice, i.p., one hour after administration
Text: (§4) Compound administration and brain tissue collection.
Quantification of compound exposure.

cFos mRNA = cFos mRNA induction in cortex of wild-type mice (PK-PD); type: in vivo, mouse; settings: 3 mg/kg ip, one hour after administration
Protocol: as §4
Quantification of cFos mRNA induction. Tissue homogenization was performed using TissueLyser system for 96 well plates (Qiagen). First, frozen cortical samples were thawed, removed from RNAlater, and placed into TissueLyser tubes along with Buffer RLT containing 0.5% Reagent DX and one 5 mm TissueLyser metal bead. The TissueLyser tubes were loaded into a TissueLyser II tissue homogenizer for 3 rounds of homogenization, with each round lasting 5 minutes at 30 Hz bead-beating frequency. Total RNA was purified from the homogenate using RNeasy 96 Plus kit (Qiagen), RNA concentration and A260/A280 ratio were quantified via the Nanodrop (ThermoFisher), and all samples were normalized to 100 ng/μl concentration. […]
Quantitative PCR was performed on the cDNA samples using Quantitect Multiplex RT-PCR kit (Qiagen) in a 384-well assay format. […] On the ViiA7 Real-Time PCR system (ThermoFisher), the samples were heated to 95° C. for 15 minutes then cycled between 94° C. for 45 seconds and 60° C. for 45 seconds for 45 cycles. cFos Ct values were exported, normalized to GAPDH Ct values, and converted to relative fold change in expression using the delta-delta Ct relative quantification method. cFos fold changes between compound treatments and vehicle were analyzed by one-way ANOVA, followed by Tukey's post-hoc comparisons.

[4] = comparative examples, single enantiomers of reported racemates
[5] = shift of half-way channel activation voltage V1/2
[6] = 6-point dose response, 10 determinations per concentration, n = 1 unless stated

T1 sequence (Q13936 whole entry): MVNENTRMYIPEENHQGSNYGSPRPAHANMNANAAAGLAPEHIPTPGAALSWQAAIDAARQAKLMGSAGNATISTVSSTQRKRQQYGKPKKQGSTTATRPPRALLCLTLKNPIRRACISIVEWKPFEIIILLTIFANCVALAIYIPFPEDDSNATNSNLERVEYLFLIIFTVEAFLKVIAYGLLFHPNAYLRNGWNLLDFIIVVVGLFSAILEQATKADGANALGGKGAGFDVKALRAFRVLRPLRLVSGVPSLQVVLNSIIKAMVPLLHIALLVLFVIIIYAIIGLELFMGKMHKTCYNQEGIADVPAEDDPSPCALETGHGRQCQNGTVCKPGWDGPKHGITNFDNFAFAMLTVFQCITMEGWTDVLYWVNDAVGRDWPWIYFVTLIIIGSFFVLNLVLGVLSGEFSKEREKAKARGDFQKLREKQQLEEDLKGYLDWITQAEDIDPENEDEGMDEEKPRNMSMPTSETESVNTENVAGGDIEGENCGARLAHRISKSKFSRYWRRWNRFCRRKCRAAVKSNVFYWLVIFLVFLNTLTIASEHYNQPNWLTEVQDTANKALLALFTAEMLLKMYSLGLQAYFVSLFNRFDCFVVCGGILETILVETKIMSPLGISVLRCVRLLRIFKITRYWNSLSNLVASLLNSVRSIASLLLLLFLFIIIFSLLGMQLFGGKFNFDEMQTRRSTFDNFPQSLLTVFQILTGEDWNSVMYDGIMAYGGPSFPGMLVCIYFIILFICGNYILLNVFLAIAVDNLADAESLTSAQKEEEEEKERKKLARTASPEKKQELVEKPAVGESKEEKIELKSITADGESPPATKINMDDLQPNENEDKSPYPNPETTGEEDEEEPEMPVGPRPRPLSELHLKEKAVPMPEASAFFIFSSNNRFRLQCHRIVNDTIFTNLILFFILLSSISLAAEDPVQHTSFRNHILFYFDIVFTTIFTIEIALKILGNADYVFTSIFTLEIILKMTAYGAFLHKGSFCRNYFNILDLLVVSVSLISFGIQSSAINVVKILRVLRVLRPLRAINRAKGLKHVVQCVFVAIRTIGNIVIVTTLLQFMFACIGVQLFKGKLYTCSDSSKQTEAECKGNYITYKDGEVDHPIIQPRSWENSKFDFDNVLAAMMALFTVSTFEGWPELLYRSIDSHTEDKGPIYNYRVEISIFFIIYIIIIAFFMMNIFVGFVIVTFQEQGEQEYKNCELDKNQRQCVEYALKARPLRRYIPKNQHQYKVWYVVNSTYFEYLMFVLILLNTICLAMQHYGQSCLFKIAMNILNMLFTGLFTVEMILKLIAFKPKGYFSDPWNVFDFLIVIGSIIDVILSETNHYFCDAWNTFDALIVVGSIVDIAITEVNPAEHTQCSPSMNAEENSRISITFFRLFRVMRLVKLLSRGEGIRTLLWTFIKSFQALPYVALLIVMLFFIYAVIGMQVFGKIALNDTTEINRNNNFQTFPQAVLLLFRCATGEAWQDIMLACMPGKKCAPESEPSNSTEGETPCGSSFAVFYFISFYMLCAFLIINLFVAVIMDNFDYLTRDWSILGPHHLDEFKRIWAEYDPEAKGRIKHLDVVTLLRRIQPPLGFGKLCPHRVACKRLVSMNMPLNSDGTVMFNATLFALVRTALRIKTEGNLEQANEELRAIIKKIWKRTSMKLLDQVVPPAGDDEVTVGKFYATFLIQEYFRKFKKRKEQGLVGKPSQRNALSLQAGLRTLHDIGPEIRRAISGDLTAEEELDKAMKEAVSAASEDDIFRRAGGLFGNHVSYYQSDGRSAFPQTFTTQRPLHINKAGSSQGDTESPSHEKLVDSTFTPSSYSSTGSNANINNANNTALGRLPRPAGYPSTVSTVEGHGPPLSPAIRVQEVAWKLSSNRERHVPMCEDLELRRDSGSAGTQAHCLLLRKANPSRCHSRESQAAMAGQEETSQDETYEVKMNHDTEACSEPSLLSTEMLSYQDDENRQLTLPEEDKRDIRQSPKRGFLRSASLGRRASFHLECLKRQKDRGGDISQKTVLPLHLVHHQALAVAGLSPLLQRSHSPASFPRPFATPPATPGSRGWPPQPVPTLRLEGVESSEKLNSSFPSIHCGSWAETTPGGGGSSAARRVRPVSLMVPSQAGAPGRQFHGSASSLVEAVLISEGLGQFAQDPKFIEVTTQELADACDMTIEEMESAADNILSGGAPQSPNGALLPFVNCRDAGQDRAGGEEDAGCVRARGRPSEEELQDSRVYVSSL

Structure (SMILES) | QPatch Emax (human Cav1.2 [1]; comparative examples) | Biophysics voltage shift (human Cav1.2 [2]; comparative examples) [mV] | EC50 (human Cav1.2 [1]; [4]) [nM] | Biophysics voltage shift (human Cav1.2 [2]; [5]) [mV] | EC50 (human Cav1.2 [1]; [6]) [nM] | QPatch Emax (human Cav1.2 [1]) | also measured
COC(=O)C1=C(C)NC(C)=C([N+](=O)[O-])[C@H]1c1ccccc1C(F)(F)F [Comparative Example 1, BayK8644] | 3.9 | – | – | – | – | – | –
COC(=O)C1=C(C)NC2=C(C(=O)OC2)C1c1ccccc1C(F)(F)F (stereo not shown) [Comparative Example 5] | 1.4 | −4.3 | 360 | – | – | – | –
COC(=O)C1=C(C)NC2=C(C(=O)OC2)C1c1ccccc1OC(F)F (stereo not shown) [Comparative Example 6] | 1.7 | −7.1 | 510 | – | – | – | –
COC(=O)C1=C(C(F)F)NC2=C(C(=O)OC2)[C@H]1c1cncc(F)c1[C@@H](C)F (single isomer, unassigned) [Example 6, methyl 2-(difluoromethyl)-4-(5-fluoro-4-(1-fluoroethyl)pyridin-3-yl)-5-oxo-1,4,5,7-tetrahydrofuro [3,4-b]pyridine-3-carboxylate] | – | – | – | −5.6 | 250 | 2.5 | –
CCOC(=O)C1=C(C)NC2=C(C(=O)OC2)[C@H]1c1ccccc1OCc1ccccc1 [Comparative Example 2, RS30124] | 4.3 | −15.4 | 450 | – | – | – | –
CCOC(=O)C1=C(C)NC2=C(C(=O)OC2)C1c1ccccc1C(F)(F)F (stereo not shown) [Comparative Example 7] | 1.9 | – | 930 | – | – | – | –
CCOC(=O)C1=C(C)NC2=C(C(=O)OC2)[C@H]1c1ccccc1OC(F)F [Comparative Example 3, CGP028392] | 2.2 | −6.7 | 280 | – | – | – | –
COC(=O)C1=C(C)NC2=C(C(=O)OC2)C1c1ccccc1C (stereo not shown) [Comparative Example 4] | 1.4 | – | 2240 | – | – | – | –
COC(=O)C1=C(C)NC2=C(C(=O)OC2)[C@H]1c1cncc(F)c1[C@@H](C)F (single isomer, unassigned) [Example 1, methyl(S)-4-(5-fluoro-4-((R)-1-fluoroethyl)pyridin-3-yl)-2-methyl-5-oxo-1,4,5,7-tetrahydrofuro [3,4-b]pyridine-3-carboxylate or methyl(S)-4-(5-fluoro-4-((S)-1-fluoroethyl)pyridin-3-yl)-2-methyl-5-oxo-1,4,5,7-tetrahydrofuro [3,4-b]pyridine-3-carboxylate] | – | – | – | −6.6 | 220 | 3.3 | Brain: blood Ratio [3]: 0.2; %↑ cFOS mRNA cortex (cFos mRNA): 174%
COC(=O)C1=C(CF)NC2=C(C(=O)OC2)[C@H]1c1cncc(F)c1[C@@H](C)F [Example 2, methyl (R)-4-(5-fluoro-4-((R)-1-fluoroethyl)pyridin-3-yl)-2-(fluoromethyl)-5-oxo-1,4,5,7-tetrahydrofuro [3,4-b]pyridine-3-carboxylate] | – | – | – | −5.9 | 61 | 2.2 | Kp at 1 h ([3]; mouse, brain (cerebellum) / blood, ip, 3 mg/kg, read-out: Brain: blood Ratio): 1.5; %↑ cFOS mRNA cortex (cFos mRNA): 384%; activity in the Sophion QPatch assay relative to the enantiomer (human Cav1.2 [1]; comparison of stereoisomers): higher activity than its corresponding enantiomer
